# Test results taken from article PMC8879474, “Tissue Transglutaminase but Not Microbial Transglutaminase Is Inhibited by Exogenous Oxidative Substances in Celiac Disease” (International Journal of Molecular Sciences, 2022).
# Target: T1, transglutaminase 2 (TG2, tissue transglutaminase) (Homo sapiens, UniProt P21980)
# T1 construct: gene TGM2
# T1 sequence (P21980 2-687): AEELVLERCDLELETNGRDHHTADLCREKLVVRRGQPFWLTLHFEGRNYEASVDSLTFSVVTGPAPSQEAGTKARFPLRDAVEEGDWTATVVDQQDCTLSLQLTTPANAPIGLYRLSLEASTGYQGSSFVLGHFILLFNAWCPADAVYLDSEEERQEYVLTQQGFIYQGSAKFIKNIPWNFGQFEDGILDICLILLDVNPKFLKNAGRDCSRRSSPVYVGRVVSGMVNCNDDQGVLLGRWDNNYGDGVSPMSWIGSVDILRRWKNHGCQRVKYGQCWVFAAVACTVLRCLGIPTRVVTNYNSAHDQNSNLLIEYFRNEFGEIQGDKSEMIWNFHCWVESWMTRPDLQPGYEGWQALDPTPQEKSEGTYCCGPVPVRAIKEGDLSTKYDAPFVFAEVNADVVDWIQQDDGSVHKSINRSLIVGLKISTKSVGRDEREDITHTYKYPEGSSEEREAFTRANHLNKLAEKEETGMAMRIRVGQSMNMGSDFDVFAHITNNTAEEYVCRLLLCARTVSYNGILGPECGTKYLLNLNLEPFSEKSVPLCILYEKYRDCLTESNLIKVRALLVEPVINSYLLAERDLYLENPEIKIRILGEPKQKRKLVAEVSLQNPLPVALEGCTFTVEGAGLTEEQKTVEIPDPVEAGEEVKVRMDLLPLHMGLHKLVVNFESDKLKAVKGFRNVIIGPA
# Assay: in vitro 5BP transamidation assay with immobilized TG2 ([…]), photometric
# Format: biochemical
row,SMILES,IC50 [µM]
1,N[C@@H](CSSC[C@H](N)C(=O)O)C(=O)O [L-cystine],140
2,"CCC(C)SSc1ncc[nH]1 (centres unmarked) [PX12, 1-methylpropyl 2-imidazolyl disulfide]",0.7
